The target of experiment [1] is Beta Secretase enzyme (BACE) (Homo sapiens, UniProt P56817). The experiment in a line: In vitro enzymatic BACE FRET (fluorescence resonance energy transfer) assay. The class given is biochemical. Conditions: average IC50, enzyme assay; read-out: BACE 1 FRET assay. A digest of the protocol: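 Cleavage of a 50 nM fluorophore/quencher peptide FRET substrate by BACE for 1 h in 0.05 M acetate pH 4.2, 10% DMSO, 100 uM genapol. Reaction stopped with Tris to neutral pH before fluorescence reading.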
Beta Secretase enzyme (BACE), sequence (P56817 46-501, species assumed): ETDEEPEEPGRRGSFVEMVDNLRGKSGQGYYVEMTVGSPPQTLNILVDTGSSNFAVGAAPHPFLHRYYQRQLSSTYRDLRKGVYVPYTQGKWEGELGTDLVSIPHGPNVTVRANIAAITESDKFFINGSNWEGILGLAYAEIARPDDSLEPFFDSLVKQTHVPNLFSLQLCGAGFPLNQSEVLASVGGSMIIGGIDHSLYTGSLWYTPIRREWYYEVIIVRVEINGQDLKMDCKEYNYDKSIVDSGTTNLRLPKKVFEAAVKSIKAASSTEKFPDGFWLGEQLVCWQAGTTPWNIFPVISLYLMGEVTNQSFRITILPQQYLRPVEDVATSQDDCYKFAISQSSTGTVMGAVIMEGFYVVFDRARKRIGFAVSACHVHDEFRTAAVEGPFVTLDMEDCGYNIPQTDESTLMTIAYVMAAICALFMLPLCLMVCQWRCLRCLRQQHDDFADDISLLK

The subject of experiment [2] is Aβ40 in conditioned medium of cells stably expressing Amyloid Precursor Protein (APP). The experiment in a line: In vitro BACE cell-based assay (Aβ40 in conditioned medium, sandwich ELISA). The settings on record: Homo sapiens, read-out: HEK cell assay. A digest of the protocol:
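Conditioned medium from stably APP-expressing cells treated with compound dose series is assayed for Aβ40 by sandwich ELISA with time-resolved fluorescence detection. IC50 is calculated from percent inhibition of Aβ40 against compound concentration.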

Setting [3] is: HEK293, average IC50, HEK cells.

Results on 20 molecules are retold here after US8883782B2, “Spiro-tetracyclic ring compounds as beta-secretase modulators and methods of use” (Amgen Inc., priority 2010, dated 2014).

Each structure is given as a SMILES string. Read-outs that look alike come from different tables or passages of the source.

Take `CC1(C#Cc2cc3c(nc2F)Oc2ccc(-c4cncc(F)c4)cc2[C@]32COC(N)=N2)COC1` [Example 906, (5R)-2-fluoro-7-(5-fluoro-3-pyridinyl)-3-((3-methyl-3-oxetanyl)ethynyl)spiro[chromeno[2,3-b]pyridine-5,4′-[1,3]oxazol]-2′-amine]: the IC50 in experiment [1] was 54.2 nM; in experiment [2] (setting [3]), 1490 nM.
`NC1=N[C@@]2(CO1)c1cc(Oc3ccc(Cl)cn3)ccc1Oc1c(F)cc(C3=CCOCC3)cc12` [Example 1066, (4S)-7′-((5-chloro-2-pyridinyl)oxy)-2′-(3,6-dihydro-2H-pyran-4-yl)-4′-fluorospiro[1,3-oxazole-4,9′-xanthen]-2-amine]: the IC50 in experiment [1] was found to be 52.6 nM; in experiment [2] (HEK293, average IC50), 1970 nM.
Taken in the same sequence, the figures for `Cc1cc(-c2cc3c(c(F)n2)Oc2ccc(-c4cccnc4F)cc2[C@@]32COC(N)=N2)ccn1` [Example 744, (5S)-1-fluoro-7-(2-fluoro-3-pyridinyl)-3-(2-methyl-4-pyridinyl)spiro[chromeno[2,3-c]pyridine-5,4′-[1,3]oxazol]-2′-amine] were 0.8 nM and 12 nM.
Taken in the same sequence, the figures for `N#Cc1cccc(-c2ccc3c(c2)[C@@]2(COC(N)=N2)c2cc(C4=CCOCC4)ccc2O3)c1` [Example 195, 3-((4R)-2-amino-7′-(3,6-dihydro-2H-pyran-4-yl)spiro[1,3-oxazole-4,9′-xanthen]-2′-yl)benzonitrile] were 9.4 nM and 63.1 nM.
As to `N#Cc1ccncc1-c1ccc2c(c1)[C@@]1(COC(N)=N1)c1cc(Cl)ncc1O2` [Example 655, 3-((5S)-2′-amino-3-chlorospiro[chromeno[2,3-c]pyridine-5,4′-[1,3]oxazol]-7-yl)-4-pyridinecarbonitrile], the IC50 in experiment [1] is 600 nM; in experiment [2] (setting [3]), 10000 nM.
Regarding `NC1=N[C@]2(CO1)c1cc(-c3cccnc3F)c(F)cc1Oc1c(F)cc(C3=CCOCC3)cc12` [Example 868, (4R)-7′-(3,6-dihydro-2H-pyran-4-yl)-3′,5′-difluoro-2′-(2-fluoro-3-pyridinyl)spiro[1,3-oxazole-4,9′-xanthen]-2-amine], the IC50 in experiment [1] was found to be 52.1 nM; in experiment [2] (setting [3]), 1130 nM.
Turning to `Cc1cnc(F)c(-c2ccc3c(c2)[C@@]2(COC(N)=N2)c2cc(C4=CCOCC4)ccc2O3)c1` [Example 191, (4R)-2′-(3,6-dihydro-2H-pyran-4-yl)-7′-(2-fluoro-5-methyl-3-pyridinyl)spiro[1,3-oxazole-4,9′-xanthen]-2-amine], the IC50 in experiment [1] turned out to be 5.6 nM; in experiment [2] (HEK293, average IC50) it was 35.6 nM.
As to `COc1ccc2c(c1)[C@@]1(COC(N)=N1)c1cc(N3CCN(C)C(C)(C)C3)cc(F)c1O2` [Example 532, (4S)-4′-fluoro-7′-methoxy-2′-(3,3,4-trimethyl-1-piperazinyl)spiro[1,3-oxazole-4,9′-xanthen]-2-amine], the results for the IC50 in experiment [1] and in experiment [2] (setting [3]) were 2370 nM and 169 nM, respectively.
Turning to `NC1=N[C@]2(CS1)c1cc(-c3cccnc3)c(F)cc1Oc1c(F)cc(C3=CCOCC3)cc12` [Example 882, (4R)-7′-(3,6-dihydro-2H-pyran-4-yl)-3′,5′-difluoro-2′-(3-pyridinyl)spiro[1,3-thiazole-4,9′-xanthen]-2-amine], the figures for the IC50 in experiment [1] and in experiment [2] (setting [3]) were 617 nM and at least 10000 nM, respectively.
`NC1=N[C@@]2(CO1)c1cc(-c3cccnc3F)ccc1Oc1ncc(N3CCC(F)(F)C3)cc12` [Example 479, (5S)-3-(3,3-difluoro-1-pyrrolidinyl)-7-(2-fluoro-3-pyridinyl)spiro[chromeno[2,3-b]pyridine-5,4′-[1,3]oxazol]-2′-amine]: the IC50 in experiment [1] was determined as 1.1 nM; in experiment [2] (setting [3]) it was 4.4 nM.
Regarding `COCC1SC(N)=N[C@]12c1cc(-c3cccnc3F)ccc1Oc1c(F)cc(OC)cc12` (stereo partly drawn) [Example 1091, (4S)-4′-fluoro-7′-(2-fluoro-3-pyridinyl)-2′-methoxy-5-(methoxymethyl)spiro[1,3-thiazole-4,9′-xanthen]-2-amine], the IC50 in experiment [1] was 5070 nM; in experiment [2] (HEK293, average IC50), over 10000 nM.
Take `N#Cc1cnc2c(c1)C1(CSC(N)=N1)c1cc(-c3cccnc3F)ccc1O2` (stereo not shown) [Example 627, 2′-amino-7-(2-fluoro-3-pyridinyl)spiro[chromeno[2,3-b]pyridine-5,4′-[1,3]thiazole]-3-carbonitrile]: the IC50 in experiment [1] turned out to be 626 nM; in experiment [2] (setting [3]), 1590 nM.
Turning to `NC1=N[C@@]2(CO1)c1cc(-c3cncc(F)c3)ccc1Oc1c(F)cc([C@@H]3CCCOC3)cc12` [Example 284, (4S)-4′-fluoro-7′-(5-fluoro-3-pyridinyl)-2′-((3S)-tetrahydro-2H-pyran-3-yl)spiro[1,3-oxazole-4,9′-xanthen]-2-amine], the IC50 in experiment [1] came to 2.2 nM; in experiment [2] (HEK293, average IC50), 13.5 nM.
`NC1=N[C@@]2(CO1)c1cc(-c3cccnc3F)ccc1Oc1c2cc(-c2ccccc2)nc1F` [Example 806, (S)-1-fluoro-7-(2-fluoropyridin-3-yl)-3-phenyl-5′H-spiro[chromeno[2,3-c]pyridine-5,4′-oxazol]-2′-amine]: the IC50 in experiment [1] was found to be 1.5 nM; in experiment [2] (HEK293, average IC50, HEK cell assay), 5 nM.
Consider `COc1cccc(COc2ccc3c(c2)[C@@]2(COC(N)=N2)c2cc(-c4cccnc4)cnc2O3)c1` [Example 983, (5S)-7-((3-methoxybenzyl)oxy)-3-(3-pyridinyl)spiro[chromeno[2,3-b]pyridine-5,4′-[1,3]oxazol]-2′-amine], for which the IC50 is 24.6 nM in experiment [1] and 314 nM in experiment [2] (HEK293, average IC50).
For `CC(C)(C)C#Cc1cnc2c(c1)[C@]1(CSC(N)=N1)c1cc(-c3cncnc3)ccc1O2` [Example 629, (5S)-3-(3,3-dimethyl-1-butyn-1-yl)-7-(5-pyrimidinyl)spiro[chromeno[2,3-b]pyridine-5,4′-[1,3]thiazol]-2′-amine], the results for the IC50 in experiment [1] and in experiment [2] (setting [3]) were 0.6 nM and 7 nM, respectively.
`Cc1ccc(-c2cnc3c(c2)[C@]2(CSC(N)=N2)c2cc(-c4cccnc4F)ccc2O3)cn1` [Example 582, (5S)-7-(2-fluoro-3-pyridinyl)-3-(6-methyl-3-pyridinyl)spiro[chromeno[2,3-b]pyridine-5,4′-[1,3]thiazol]-2′-amine]: the values for the IC50 in experiment [1] and in experiment [2] (setting [3]) were 2 nM and 5 nM, respectively.
Regarding `CC(C)(C#N)COc1cc(F)c2c(c1)[C@]1(COC(N)=N1)c1cc(-c3cccnc3)ccc1O2` [Example 257, 3-(((4S)-2-amino-4′-fluoro-7′-(3-pyridinyl)spiro[1,3-oxazole-4,9′-xanthen]-2′-yl)oxy)-2,2-dimethylpropanenitrile], the IC50 stood at 1 nM in experiment [1] and 6.3 nM in experiment [2] (HEK293, average IC50).
Turning to `NC1=N[C@@]2(CO1)c1cc(-c3cccnc3F)ccc1Oc1nc(F)c(C3=CCCOC3)cc12` [Example 903, (5S)-3-(5,6-dihydro-2H-pyran-3-yl)-2-fluoro-7-(2-fluoro-3-pyridinyl)spiro[chromeno[2,3-b]pyridine-5,4′-[1,3]oxazol]-2′-amine], the IC50 in experiment [1] stood at 1.4 nM; in experiment [2] (setting [3]), 49 nM.
For the molecule `CC1(/C=C/c2cnc3c(c2)[C@]2(COC(N)=N2)c2cc(-c4cc(Cl)ccc4F)ccc2O3)COC1` [Example 177, (5S)-7-(5-chloro-2-fluorophenyl)-3-((E)-2-(3-methyl-3-oxetanyl)ethenyl)spiro[chromeno[2,3-b]pyridine-5,4′-[1,3]oxazol]-2′-amine], the IC50 in experiment [1] worked out at 0.4 nM; in experiment [2] (HEK293, average IC50) it was 1.8 nM.
